From patent US20090029992A1, “SUBSTITUTED PYRAZOLE COMPOUNDS” (priority 2007, published 2009)

Experiments:
[1] = test system: HCT116 cells; assay: Whole cell cytotoxicity assay, Sulforhodamine B; assay type: cell-based; settings: Homo sapiens, HCT-116, HCT116, 96 hours incubation, SRB
Outline: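 HCT116 cells (500/well) in DMEM/10% FBS/2 mM glutamine were preincubated 24 h, then exposed to compound for 96 h at 37 °C, 5% CO2, in duplicate. Cells were fixed with TCA and stained with sulforhodamine B (A570). GI50, TGI and LC50 were derived relative to a time-zero plate and an untreated control.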

[2] = target: T1, N-terminal His-tagged human Src (Homo sapiens, UniProt P12931); assay: Src kinase inhibition assay (33P-ATP filter assay); assay type: biochemical; settings: 40 minutes at room temperature
T1 construct: His (N); purchased Upstate USA Inc, 706 Forest Street, Charlottesville, Va

[3] = target: T2, recombinant Aurora A (Homo sapiens, UniProt O14965); assay: Aurora A (Aurora 2) inhibition assay, Z'-Lyte kinase assay; assay type: biochemical; settings: ATP 10 μM, 1 h
T2 construct: purchased Upstate, Lake Placid, N.Y
T2 sequence (O14965 1-403): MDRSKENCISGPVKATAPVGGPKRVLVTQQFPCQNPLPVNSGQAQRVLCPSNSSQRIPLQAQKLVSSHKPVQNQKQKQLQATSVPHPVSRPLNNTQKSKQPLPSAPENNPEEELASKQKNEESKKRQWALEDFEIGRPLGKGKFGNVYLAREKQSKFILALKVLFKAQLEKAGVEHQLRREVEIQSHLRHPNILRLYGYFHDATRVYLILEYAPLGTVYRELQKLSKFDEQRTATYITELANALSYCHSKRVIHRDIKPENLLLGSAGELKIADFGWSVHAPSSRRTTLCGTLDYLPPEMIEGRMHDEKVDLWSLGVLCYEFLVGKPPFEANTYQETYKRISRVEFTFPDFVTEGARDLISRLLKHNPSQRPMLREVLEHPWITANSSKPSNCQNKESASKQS
Procedure: Compounds were tested for their potency against recombinant Aurora A (Upstate, Lake Placid, N.Y.) using the PanVera Z′-Lyte kinase assay kit—Ser/Thr 1 peptide (Invitrogen, Carlsbad, Calif.). Assays were carried out in kinase assay buffer (50 mM HEPES, pH 7.5, 10 mM MgCl2, 5 mM EGTA, 0.05% Brij-35, 2 mM DTT). Test compounds were initially dissolved in DMSO at 100× the highest tested concentration, then serially diluted to 4× test concentrations in kinase assay buffer. Next, Aurora A (final concentration 200-500 ng/mL), Z′-Lyte Ser/Thr 1 peptide (final concentration 2 μM) and ATP (final concentration 10 μM) were added according to the manufacturer's instructions. Assays were carried out in half-area 96-well white polystyrene assay plates (Corning, Corning, N.Y.) in a final volume of 20 μl. The reaction was allowed to proceed for 1 h at room temperature in the dark, at which point the development reagent and stop reagent were added according to the manufacturer's instructions. Coumarin (Ex. 400 nm, Em. 465 nm) and fluorescein (Ex. 400 nm, Em. 565 nm) fluorescence values were measured on a SpectraFluor Plus plate reader (Tecan, Durham, N.C.). The emission ratio (coumarin/fluorescein) was determined and used to calculate the percent phosphorylation for each well. Wells containing substrate but no kinase and wells containing a phosphopeptide control were used to set 0% and 100% phosphorylation values, respectively. Typically 20-40% of the substrate was phosphorylated in wells without inhibitor. Dose-response curves of relative Aurora A activity vs. inhibitor concentration were plotted with Grafit (Erithacus Software, Horley, Surrey, UK).

[4] = target: T3, N-terminal His6-tagged recombinant human KDR, residues 790-end (Homo sapiens, UniProt P35968); assay: KDR kinase inhibition assay (33P-ATP filter assay); assay type: biochemical; settings: 40 minutes at room temperature
T3 construct: recombinant human KDR, residues 790-end; His6 (N); purchased Upstate USA Inc, 706 Forest Street, Charlottesville, Va
Outline: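 His6-tagged human KDR (residues 790-end, 5-10 mU) with 0.33 mg/mL myelin basic protein in 8 mM MOPS pH 7.0, 0.2 mM EDTA, 10 mM magnesium acetate and [γ-33P]ATP; 40 min at room temperature. Stopped with phosphoric acid, filter-bound 33P counted; inhibition relative to no-inhibitor controls.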

T3 sequence (P35968 790-1356 limits assumed): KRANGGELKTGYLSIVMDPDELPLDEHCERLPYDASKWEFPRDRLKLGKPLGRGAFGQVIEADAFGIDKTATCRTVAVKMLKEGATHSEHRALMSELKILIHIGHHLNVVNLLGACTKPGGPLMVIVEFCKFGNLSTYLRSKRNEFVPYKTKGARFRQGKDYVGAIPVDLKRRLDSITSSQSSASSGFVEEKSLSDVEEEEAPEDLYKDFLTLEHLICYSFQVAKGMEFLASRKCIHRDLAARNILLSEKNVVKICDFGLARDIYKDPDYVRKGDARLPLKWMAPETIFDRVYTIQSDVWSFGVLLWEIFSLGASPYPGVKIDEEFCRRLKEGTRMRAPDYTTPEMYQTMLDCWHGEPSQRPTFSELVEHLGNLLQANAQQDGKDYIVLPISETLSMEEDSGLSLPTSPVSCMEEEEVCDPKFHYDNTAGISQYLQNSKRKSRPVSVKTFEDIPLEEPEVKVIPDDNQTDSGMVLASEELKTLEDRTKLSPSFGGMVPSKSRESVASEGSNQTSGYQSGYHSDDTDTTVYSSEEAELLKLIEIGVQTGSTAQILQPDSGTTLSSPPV
T1 sequence (P12931 whole entry): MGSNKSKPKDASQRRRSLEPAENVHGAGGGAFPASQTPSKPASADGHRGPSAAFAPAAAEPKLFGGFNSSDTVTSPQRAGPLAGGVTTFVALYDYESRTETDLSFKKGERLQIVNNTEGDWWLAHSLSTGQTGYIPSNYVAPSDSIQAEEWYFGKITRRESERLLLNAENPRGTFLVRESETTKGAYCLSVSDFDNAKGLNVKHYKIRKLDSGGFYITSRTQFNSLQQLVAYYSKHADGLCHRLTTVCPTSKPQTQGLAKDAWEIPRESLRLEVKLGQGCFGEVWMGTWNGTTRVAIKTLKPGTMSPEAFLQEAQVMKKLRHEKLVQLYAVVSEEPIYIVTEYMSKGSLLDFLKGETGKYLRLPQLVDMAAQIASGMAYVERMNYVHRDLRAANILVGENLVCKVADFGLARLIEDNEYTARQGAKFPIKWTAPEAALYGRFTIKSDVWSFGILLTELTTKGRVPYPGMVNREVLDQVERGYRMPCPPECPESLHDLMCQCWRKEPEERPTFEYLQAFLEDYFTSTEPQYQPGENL

IC50 [2]	IC50 [3]	IC50 [4]	IC50 ([3]; group with IC50 greater than 100 nM)	Structure (SMILES)	IC50 ([1]; read-out: IC50 values in this assay (HCT116 cell growth))	GI50 ([1]; read-out: GI50 HCT116 cell growth)
≤ 100 nM	≤ 100 nM	≤ 100 nM	–	Cc1cc(Nc2cc(N3CCN(C)CC3)nc(-c3ccccc3F)n2)n[nH]1 [Compound 34, 2-(2-fluorophenyl)-N-(5-methyl-1H-pyrazol-3-yl)-6-(4-methylpiperazin-1-yl)pyrimidin-4-amine]	1000 to 10000 nM	–
≤ 100 nM	–	≤ 100 nM	≤ 1000 nM	Cc1cc(Nc2cc(N3CCN(C)CC3)nc(-c3ccc(F)cc3F)n2)n[nH]1 [Example 172, 2-(2,4-difluorophenyl)-N-(5-methyl-1H-pyrazol-3-yl)-6-(4-methylpiperazin-1-yl)pyrimidin-4-amine]	–	≤ 1000 nM
